Where a SMILES comes first, the peptide text is derived from it. [ ]: non-standard residue; d: D form. NMeF = CN[C@@H](Cc1ccccc1)C(=O)O; NMeL = CN[C@@H](CC(C)C)C(=O)O; dNMeL = CN[C@H](CC(C)C)C(=O)O; dNMeV = CN[C@@H](C(=O)O)C(C)C; NMeV = CN[C@H](C(=O)O)C(C)C; NMeA = CN[C@@H](C)C(=O)O; dNMeA = CN[C@H](C)C(=O)O
Assays:
[1] = PAMPA
in vitro = conditions: PAMPA, PAMPA_Papp_Avg

| SMILES | PAMPA_R1 [1] | PAMPA_R3 [1] | Papp (in vitro) [×10⁻⁶ cm/s] |
| --- | --- | --- | --- |
| CC[C@H](C)[C@@H]1NC(=O)CNC(=O)[C@@H]2CCCN2C(=O)[C@H]2CCCN2C(=O)[C@H]([C@@H](C)CC)NC(=O)[C@@H](C)N(C)C(=O)[C@@H]2CCCN2C(=O)[C@H](C(C)C)NC(=O)[C@@H](CC(C)C)NC1=O [Design D9.33, DPRO PRO GLY ILE DLEU VAL PRO *DALA ILE] (cyclo(GI[dL]VP[dNMeA]I[dP]P)) | 2.73E-07 | 4.74E-07 | 0.317 |
| CC[C@H](C)[C@@H]1NC(=O)[C@H]2CCCN2C(=O)[C@H](CC(C)C)N(C)C(=O)[C@H](CC(C)C)NC(=O)[C@H](C(C)C)NC(=O)[C@@H]2CCCN2C(=O)[C@H](CC(C)C)N(C)C(=O)[C@H](C(C)C)NC(=O)[C@@H](C(C)C)NC1=O [Design D9.39, DVAL VAL *LEU PRO VAL LEU *LEU DPRO ILE] (cyclo(I[dV]V[NMeL]PVL[NMeL][dP])) | 5.51E-07 | 2.78E-07 | 0.466 |
| CC[C@@H](C)[C@H]1NC(=O)[C@H](Cc2ccccc2)NC(=O)[C@@H](C)NC(=O)[C@@H](CC(C)C)N(C)C(=O)[C@@H]2CCCN2C(=O)[C@H](C)NC(=O)[C@H]2CCCN2C(=O)[C@@H]2CCCN2C(=O)[C@@H](Cc2ccccc2)NC1=O [Design D9.41, PRO DPRO ALA PRO *DLEU DALA PHE DILE DPHE] (cyclo(AP[dNMeL][dA]F[dI][dF]P[dP])) | 3.56E-06 | 3.41E-06 | 3.48 |
| CC[C@H](C)[C@@H]1NC(=O)[C@H]2CCCN2C(=O)[C@@H]2CCCN2C(=O)[C@H](C(C)C)NC(=O)[C@@H](C(C)C)NC(=O)[C@H](Cc2ccccc2)N(C)C(=O)[C@H]2CCCN2C(=O)[C@@H](CC(C)C)N(C)C(=O)[C@@H](CC(C)C)NC1=O [Design D9.42, DPRO ILE DLEU *DLEU DPRO *PHE DVAL VAL PRO] (cyclo(I[dL][dNMeL][dP][NMeF][dV]VP[dP])) | 1.18E-06 | 1.07E-06 | 1.12 |
| CC(C)C[C@@H]1C(=O)N2CCC[C@@H]2C(=O)N(C)[C@@H](C(C)C)C(=O)N[C@@H](C(C)C)C(=O)N2CCC[C@H]2C(=O)N2CCC[C@@H]2C(=O)N[C@@H](C)C(=O)N[C@H](C(C)C)C(=O)N(C)[C@@H](CC(C)C)C(=O)N[C@@H](C)C(=O)N1C [Design D10.6, PRO DPRO ALA DVAL *LEU ALA *DLEU DPRO *VAL VAL] (cyclo(A[dNMeL][dP][NMeV]VP[dP]A[dV][NMeL])) | 1.62E-06 | 7.67E-07 | 1.22 |
| CC(C)C[C@@H]1NC(=O)[C@@H](CC(C)C)NC(=O)[C@@H]2CCCN2C(=O)[C@@H](CC(C)C)NC(=O)[C@H](C)N(C)C(=O)[C@H](C)NC(=O)[C@H](CC(C)C)N(C)C(=O)[C@@H]2CCCN2C(=O)[C@H](CC(C)C)NC(=O)[C@H](CC(C)C)N(C)C1=O [Design D10.16, DLEU LEU *LEU LEU PRO *LEU ALA *ALA DLEU PRO] (cyclo(A[NMeA][dL]P[dL]L[NMeL]LP[NMeL])) | 2.30E-06 | 2.32E-06 | 2.27 |
| CC(C)C[C@@H]1C(=O)N[C@H](C)C(=O)N2CCC[C@H]2C(=O)N(C)[C@H](CC(C)C)C(=O)N[C@@H](C)C(=O)N(C)[C@@H](CC(C)C)C(=O)N(C)[C@H](C(C)C)C(=O)N[C@H](Cc2ccccc2)C(=O)N2CCC[C@@H]2C(=O)N2CCC[C@H]2C(=O)N1C [Design D10.18, DPRO PRO *DLEU DALA PRO *DLEU ALA *LEU *DVAL DPHE] (cyclo([dNMeL][dA]P[dNMeL]A[NMeL][dNMeV][dF][dP]P)) | 9.23E-08 | 1.49E-07 | 0.0948 |
| CC(C)C[C@@H]1NC(=O)[C@@H](Cc2ccccc2)NC(=O)[C@@H](CC(C)C)N(C)C(=O)[C@@H]2CCCN2C(=O)[C@H](C)NC(=O)[C@@H](CC(C)C)N(C)C(=O)[C@@H]2CCCN2C(=O)[C@H](CC(C)C)N(C)C(=O)[C@H](CC(C)C)N(C)C(=O)[C@H](C(C)C)NC1=O [Design D10.20, PRO *DLEU ALA PRO *DLEU DPHE LEU VAL *LEU *LEU] (cyclo(AP[dNMeL][dF]LV[NMeL][NMeL]P[dNMeL])) | 1.95E-06 | 3.37E-06 | 2.59 |
| CC[C@@H](C)[C@H]1NC(=O)[C@H](C(C)C)NC(=O)[C@H]2CCCN2C(=O)[C@@H]2CCCN2C(=O)[C@H](CC(C)C)N(C)C(=O)[C@H](C)N(C)C(=O)[C@@H](CC(C)C)N(C)C(=O)[C@H](C)NC(=O)[C@@H](Cc2ccccc2)NC(=O)[C@@H]2CCCN2C1=O [Design D10.25, DPHE ALA *DLEU *ALA *LEU PRO DPRO VAL DILE PRO] (cyclo(A[dNMeL][NMeA][NMeL]P[dP]V[dI]P[dF])) | 3.97E-07 | 4.39E-07 | 0.452 |
| CC[C@@H](C)[C@H]1NC(=O)[C@@H]2CCCN2C(=O)[C@@H](Cc2ccccc2)NC(=O)[C@H](CC(C)C)N(C)C(=O)[C@H](C)NC(=O)[C@H]2CCCN2C(=O)[C@@H]2CCCN2C(=O)[C@H](CC(C)C)NC(=O)[C@H](CC(C)C)N(C)C(=O)[C@H](C)N(C)C1=O [Design D10.26, PRO DILE *ALA *LEU LEU PRO DPRO ALA *LEU DPHE] (cyclo(A[NMeL][dF]P[dI][NMeA][NMeL]LP[dP])) | 1.40E-06 | 1.69E-06 | 1.51 |
| CC(C)[C@@H]1NC(=O)[C@H]2CCCN2C(=O)[C@@H](C(C)C)NC(=O)[C@@H]2CCCN2C(=O)[C@H](Cc2ccccc2)NC(=O)[C@H](Cc2ccccc2)NC(=O)[C@H]2CCCN2C(=O)[C@@H](C(C)C)NC(=O)[C@@H]2CCCN2C(=O)[C@H](C(C)C)NC1=O [Design D10.27, PRO DVAL DPRO VAL VAL PRO DVAL DPRO PHE PHE] (cyclo(FFP[dV][dP]VVP[dV][dP])) | 5.18E-07 | 5.10E-07 | 0.49 |
| CC(C)C[C@@H]1C(=O)N[C@@H](C)C(=O)N[C@H](CC(C)C)C(=O)N(C)[C@@H](C)C(=O)N2CCC[C@@H]2C(=O)N2CCC[C@@H]2C(=O)N2CCC[C@@H]2C(=O)N2CCC[C@H]2C(=O)N[C@H](C(C)C)C(=O)N(C)[C@@H](CC(C)C)C(=O)N1C [Design D10.28, DLEU *ALA DPRO DPRO DPRO PRO DVAL *LEU *DLEU ALA] (cyclo([dV][NMeL][dNMeL]A[dL][NMeA][dP][dP][dP]P)) | 1.56E-07 | 2.34E-07 | 0.184 |
| CC(C)C[C@@H]1C(=O)N(C)[C@H](C)C(=O)N(C)[C@@H](C(C)C)C(=O)N2CCC[C@@H]2C(=O)N[C@H](C)C(=O)N[C@@H](Cc2ccccc2)C(=O)N2CCC[C@@H]2C(=O)N2CCC[C@H]2C(=O)N[C@H](C(C)C)C(=O)N[C@@H](C(C)C)C(=O)N1C [Design D10.29, PHE DPRO PRO DVAL VAL *DLEU *DALA *VAL DPRO DALA] (cyclo([dV]V[dNMeL][dNMeA][NMeV][dP][dA]F[dP]P)) | 3.87E-07 | 4.67E-07 | 0.441 |
| CC(C)C[C@H]1NC(=O)[C@H](CC(C)C)N(C)C(=O)[C@@H](Cc2ccccc2)NC(=O)[C@@H](C)N(C)C(=O)[C@@H]2CCCN2C(=O)[C@H](C(C)C)NC(=O)[C@H](CC(C)C)N(C)C(=O)[C@@H](C)NC(=O)[C@@H]2CCCN2C(=O)[C@H]2CCCN2C1=O [Design D10.32, PRO *DALA DPHE *LEU DLEU DPRO PRO DALA *LEU VAL] (cyclo([dA][NMeL]VP[dNMeA][dF][NMeL][dL][dP]P)) | 2.87E-06 | 2.80E-06 | 3.18 |
| CC(C)C[C@@H]1NC(=O)[C@H](C(C)C)NC(=O)[C@@H](CC(C)C)N(C)C(=O)[C@H](C)NC(=O)[C@@H](CC(C)C)N(C)C(=O)[C@@H]2CCCN2C(=O)[C@H]2CCCN2C(=O)[C@H](C)N(C)C(=O)[C@H]2CCCN2C(=O)[C@@H](CC(C)C)NC1=O [Design D10.35, LEU DLEU DPRO *ALA DPRO PRO *DLEU ALA *DLEU VAL] (cyclo([dNMeL]A[dNMeL]VL[dL][dP][NMeA][dP]P)) | 5.25E-07 | 2.07E-07 | 0.279 |
| CC[C@@H](C)[C@H]1NC(=O)[C@@H](Cc2ccccc2)NC(=O)[C@H](CC(C)C)NC(=O)[C@@H](C)N(C)C(=O)[C@@H](CC(C)C)NC(=O)[C@H](CC(C)C)NC(=O)[C@H]2CCCN2C(=O)[C@@H]2CCCN2C(=O)[C@@H](C)NC(=O)[C@H]2CCCN2C1=O [Design D10.37, DLEU *DALA LEU DPHE DILE DPRO DALA PRO DPRO LEU] (cyclo(L[dF][dI][dP][dA]P[dP]L[dL][dNMeA])) | 7.62E-07 | 6.36E-07 | 0.654 |
| CC[C@@H](C)[C@H]1NC(=O)[C@H]2CCCN2C(=O)[C@@H]2CCCN2C(=O)[C@@H](CC(C)C)NC(=O)[C@H](C)NC(=O)[C@@H](CC(C)C)N(C)C(=O)[C@@H](C)N(C)C(=O)[C@@H]2CCCN2C(=O)[C@@H]([C@H](C)CC)NC(=O)[C@@H](CC(C)C)N(C)C1=O [Design D10.39, PRO *DALA *DLEU ALA DLEU PRO DPRO DILE *DLEU DILE] (cyclo(A[dL]P[dP][dI][dNMeL][dI]P[dNMeA][dNMeL])) | 1.69E-06 | 1.47E-06 | 1.48 |
| CC(C)C[C@H]1NC(=O)[C@@H](C(C)C)NC(=O)[C@H](CC(C)C)N(C)C(=O)[C@@H](Cc2ccccc2)NC(=O)[C@H](CC(C)C)N(C)C(=O)[C@H]2CCCN2C(=O)[C@@H]2CCCN2C(=O)[C@H]2CCCN2C(=O)[C@@H](C(C)C)NC(=O)[C@H]2CCCN2C1=O [Design D10.42, DVAL DLEU DPRO DVAL DPRO PRO DPRO *LEU DPHE *LEU] (cyclo([dP][NMeL][dF][NMeL][dV][dL][dP][dV][dP]P)) | 7.55E-07 | 8.78E-07 | 0.71 |
| CC(C)C[C@@H]1C(=O)N[C@@H](C)C(=O)N[C@H](CC(C)C)C(=O)N2CCC[C@H]2C(=O)N[C@H](C)C(=O)N2CCC[C@@H]2C(=O)N2CCC[C@H]2C(=O)N[C@H](C(C)C)C(=O)N[C@H](CC(C)C)C(=O)N(C)[C@H](CC(C)C)C(=O)N1C [Design D10.43, DALA DPRO PRO DVAL DLEU *DLEU *DLEU ALA DLEU PRO] (cyclo([dV][dL][dNMeL][dNMeL]A[dL]P[dA][dP]P)) | 1.81E-07 | 1.70E-07 | 0.161 |

Reference: PMC9490236, “Accurate de novo design of membrane-traversing macrocycles” (Cell, 2022)
